Test results: the kinase profiling compilation of Christmann-Franck et al. (2016)

What was measured:
Test in all cases: KINOMEscan competition binding
Conditions in all cases: compound 10.0 µM
RPS6KB1 (human) = RPS6KB1 (human) (UniProt P23443)
[1] = tested on: FLT3 (human), P36888 [D835H]
MAPK12 (human) = MAPK12 (human) (UniProt P53778)
[2] = target: TYK2 JH1 catalytic (human) (UniProt P29597)
MAP3K3 (human) = MAP3K3 (human) (UniProt Q99759)
PIK3CD (human) = PIK3CD (human) (UniProt O00329)
MKNK1 (human) = MKNK1 (human) (UniProt Q9BUB5)
CSNK1G3 (human) = CSNK1G3 (human) (UniProt Q9Y6M4)
FER (human) = FER (human) (UniProt P16591)
CAMK2A (human) = CAMK2A (human) (UniProt Q9UQM7)
NEK1 (human) = NEK1 (human) (UniProt Q96PY6)
TRPM6 (human) = TRPM6 (human) (UniProt Q9BX84)
MAP3K2 (human) = MAP3K2 (human) (UniProt Q9Y2U5)
[3] = tested on: MET (human), P08581 [Y1235D]
STK35 (human) = STK35 (human) (UniProt Q8TDR2)
TAOK2 (human) = TAOK2 (human) (UniProt Q9UL54)
MAPK14 (human) = MAPK14 (human) (UniProt Q16539)
BRSK1 (human) = BRSK1 (human) (UniProt Q8TDC3)
FYN (human) = FYN (human) (UniProt P06241)
CDK5 (human) = CDK5 (human) (UniProt Q00535)
MAP3K10 (human) = MAP3K10 (human) (UniProt Q02779)
KIT (human) = KIT (human) (UniProt P10721)
[4] = target: JAK1 JH1 catalytic (human) (UniProt P23458)
RPS6KA4 KD1 (human) = RPS6KA4 KD1 (human) (UniProt O75676)
NUAK1 (human) = NUAK1 (human) (UniProt O60285)
[5] = tested on: ABL1 (human), P00519 [Y253F]
MYLK2 (human) = MYLK2 (human) (UniProt Q9H1R3)
PLK4 (human) = PLK4 (human) (UniProt O00444)
DCLK2 (human) = DCLK2 (human) (UniProt Q8N568)
PAK2 (human) = PAK2 (human) (UniProt Q13177)
PRKCE (human) = PRKCE (human) (UniProt Q02156)
STK11 (human) = STK11 (human) (UniProt Q15831)
PIM1 (human) = PIM1 (human) (UniProt P11309)
MAP2K1 (human) = MAP2K1 (human) (UniProt Q02750)
GRK4 (human) = GRK4 (human) (UniProt P32298)
SNRK (human) = SNRK (human) (UniProt Q9NRH2)
MAP3K6 (human) = MAP3K6 (human) (UniProt O95382)
CDC42BPB (human) = CDC42BPB (human) (UniProt Q9Y5S2)
MAP4K5 (human) = MAP4K5 (human) (UniProt Q9Y4K4)
DAPK2 (human) = DAPK2 (human) (UniProt Q9UIK4)

CDC42BPB (human), sequence (Q9Y5S2 whole entry, looked up): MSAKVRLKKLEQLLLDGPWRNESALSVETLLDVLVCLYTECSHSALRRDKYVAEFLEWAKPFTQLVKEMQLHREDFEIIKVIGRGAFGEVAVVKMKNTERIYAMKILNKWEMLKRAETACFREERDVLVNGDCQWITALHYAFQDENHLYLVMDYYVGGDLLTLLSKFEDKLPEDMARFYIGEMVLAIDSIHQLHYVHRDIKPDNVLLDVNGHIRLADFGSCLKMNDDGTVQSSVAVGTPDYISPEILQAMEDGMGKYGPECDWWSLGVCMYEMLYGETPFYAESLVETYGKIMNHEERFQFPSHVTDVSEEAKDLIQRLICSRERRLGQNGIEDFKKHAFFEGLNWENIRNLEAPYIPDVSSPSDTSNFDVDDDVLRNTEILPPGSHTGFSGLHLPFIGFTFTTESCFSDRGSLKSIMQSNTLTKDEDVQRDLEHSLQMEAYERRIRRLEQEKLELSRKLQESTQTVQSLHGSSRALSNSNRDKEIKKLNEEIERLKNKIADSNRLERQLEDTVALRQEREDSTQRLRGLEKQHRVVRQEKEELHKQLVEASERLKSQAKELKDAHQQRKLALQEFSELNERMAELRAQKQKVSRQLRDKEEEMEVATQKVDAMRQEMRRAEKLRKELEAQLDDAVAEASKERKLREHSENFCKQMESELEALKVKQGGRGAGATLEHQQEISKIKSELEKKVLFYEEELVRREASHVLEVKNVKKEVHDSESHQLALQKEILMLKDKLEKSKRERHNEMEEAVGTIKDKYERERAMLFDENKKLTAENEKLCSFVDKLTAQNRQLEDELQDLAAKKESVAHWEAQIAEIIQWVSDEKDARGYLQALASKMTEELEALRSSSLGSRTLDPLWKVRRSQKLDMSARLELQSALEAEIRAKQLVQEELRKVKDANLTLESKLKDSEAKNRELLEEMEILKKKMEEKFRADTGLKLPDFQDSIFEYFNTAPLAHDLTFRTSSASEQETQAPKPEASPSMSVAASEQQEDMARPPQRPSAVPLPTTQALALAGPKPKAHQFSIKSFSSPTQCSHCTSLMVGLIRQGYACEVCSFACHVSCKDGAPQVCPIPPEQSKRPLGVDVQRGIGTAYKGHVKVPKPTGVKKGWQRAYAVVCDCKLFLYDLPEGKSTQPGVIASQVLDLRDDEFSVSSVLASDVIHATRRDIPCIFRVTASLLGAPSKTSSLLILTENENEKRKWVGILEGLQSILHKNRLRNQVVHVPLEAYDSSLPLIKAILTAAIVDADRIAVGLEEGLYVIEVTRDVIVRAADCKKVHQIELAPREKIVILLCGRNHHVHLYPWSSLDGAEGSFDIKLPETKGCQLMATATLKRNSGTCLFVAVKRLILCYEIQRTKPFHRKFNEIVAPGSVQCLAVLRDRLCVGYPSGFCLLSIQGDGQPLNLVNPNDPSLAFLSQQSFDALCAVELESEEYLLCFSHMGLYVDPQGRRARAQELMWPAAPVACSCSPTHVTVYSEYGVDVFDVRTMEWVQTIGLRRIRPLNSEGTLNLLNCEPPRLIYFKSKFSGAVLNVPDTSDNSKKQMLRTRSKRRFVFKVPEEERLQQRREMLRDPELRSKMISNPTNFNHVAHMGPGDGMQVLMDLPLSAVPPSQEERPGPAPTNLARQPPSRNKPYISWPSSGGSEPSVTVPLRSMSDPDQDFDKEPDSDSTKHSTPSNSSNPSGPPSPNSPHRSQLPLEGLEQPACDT
TRPM6 (human), sequence (Q9BX84 whole entry, looked up): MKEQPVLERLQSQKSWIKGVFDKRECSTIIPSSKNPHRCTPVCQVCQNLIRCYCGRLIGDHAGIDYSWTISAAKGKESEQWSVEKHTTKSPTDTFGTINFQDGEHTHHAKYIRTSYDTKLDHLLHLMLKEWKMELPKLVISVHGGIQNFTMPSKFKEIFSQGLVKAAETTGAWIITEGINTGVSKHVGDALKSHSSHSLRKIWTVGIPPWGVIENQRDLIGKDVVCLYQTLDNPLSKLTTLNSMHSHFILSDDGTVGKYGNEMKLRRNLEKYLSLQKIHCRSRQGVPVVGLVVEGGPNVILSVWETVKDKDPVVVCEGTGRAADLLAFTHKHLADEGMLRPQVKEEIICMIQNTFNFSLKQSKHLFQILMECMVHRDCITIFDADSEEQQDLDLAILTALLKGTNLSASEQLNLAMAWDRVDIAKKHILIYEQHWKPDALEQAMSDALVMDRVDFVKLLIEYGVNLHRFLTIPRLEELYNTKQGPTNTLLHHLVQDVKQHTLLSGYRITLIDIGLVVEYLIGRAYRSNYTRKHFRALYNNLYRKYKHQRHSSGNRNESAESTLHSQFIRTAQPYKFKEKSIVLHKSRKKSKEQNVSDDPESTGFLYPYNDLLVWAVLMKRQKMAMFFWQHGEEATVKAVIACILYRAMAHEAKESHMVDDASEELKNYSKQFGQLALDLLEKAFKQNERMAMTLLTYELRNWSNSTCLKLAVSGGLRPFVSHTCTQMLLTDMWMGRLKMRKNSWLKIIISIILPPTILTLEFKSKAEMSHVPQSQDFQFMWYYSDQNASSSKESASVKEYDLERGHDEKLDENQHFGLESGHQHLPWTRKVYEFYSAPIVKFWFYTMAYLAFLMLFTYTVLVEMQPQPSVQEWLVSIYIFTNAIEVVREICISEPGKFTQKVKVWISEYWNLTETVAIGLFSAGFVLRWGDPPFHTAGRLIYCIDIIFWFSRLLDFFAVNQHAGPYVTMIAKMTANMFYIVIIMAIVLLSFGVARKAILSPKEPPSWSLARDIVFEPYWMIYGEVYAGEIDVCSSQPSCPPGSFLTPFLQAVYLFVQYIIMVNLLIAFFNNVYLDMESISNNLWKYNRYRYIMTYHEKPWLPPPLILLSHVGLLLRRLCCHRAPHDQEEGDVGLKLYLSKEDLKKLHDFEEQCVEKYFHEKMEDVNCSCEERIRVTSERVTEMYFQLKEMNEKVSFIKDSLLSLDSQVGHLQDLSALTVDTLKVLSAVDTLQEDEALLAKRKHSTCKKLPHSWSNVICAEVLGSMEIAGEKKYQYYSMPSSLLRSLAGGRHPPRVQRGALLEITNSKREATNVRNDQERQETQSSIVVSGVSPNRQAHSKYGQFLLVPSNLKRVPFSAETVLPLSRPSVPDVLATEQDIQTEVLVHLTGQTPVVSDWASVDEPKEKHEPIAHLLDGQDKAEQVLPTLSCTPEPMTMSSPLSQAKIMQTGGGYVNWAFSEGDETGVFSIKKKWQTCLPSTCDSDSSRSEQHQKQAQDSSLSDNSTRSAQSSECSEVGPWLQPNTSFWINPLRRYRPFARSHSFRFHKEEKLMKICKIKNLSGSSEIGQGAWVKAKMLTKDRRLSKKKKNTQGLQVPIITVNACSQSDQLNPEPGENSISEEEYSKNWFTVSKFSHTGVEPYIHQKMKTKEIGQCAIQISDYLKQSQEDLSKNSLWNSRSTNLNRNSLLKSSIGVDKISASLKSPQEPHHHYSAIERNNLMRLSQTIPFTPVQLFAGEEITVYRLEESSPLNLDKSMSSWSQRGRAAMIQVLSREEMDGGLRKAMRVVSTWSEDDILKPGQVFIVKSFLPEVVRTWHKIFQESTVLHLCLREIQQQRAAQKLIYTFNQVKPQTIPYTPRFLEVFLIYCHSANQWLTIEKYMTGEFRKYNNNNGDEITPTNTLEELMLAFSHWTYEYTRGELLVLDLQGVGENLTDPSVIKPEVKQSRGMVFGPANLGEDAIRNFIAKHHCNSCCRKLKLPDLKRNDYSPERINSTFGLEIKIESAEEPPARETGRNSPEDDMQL
TAOK2 (human), sequence (Q9UL54 whole entry, looked up): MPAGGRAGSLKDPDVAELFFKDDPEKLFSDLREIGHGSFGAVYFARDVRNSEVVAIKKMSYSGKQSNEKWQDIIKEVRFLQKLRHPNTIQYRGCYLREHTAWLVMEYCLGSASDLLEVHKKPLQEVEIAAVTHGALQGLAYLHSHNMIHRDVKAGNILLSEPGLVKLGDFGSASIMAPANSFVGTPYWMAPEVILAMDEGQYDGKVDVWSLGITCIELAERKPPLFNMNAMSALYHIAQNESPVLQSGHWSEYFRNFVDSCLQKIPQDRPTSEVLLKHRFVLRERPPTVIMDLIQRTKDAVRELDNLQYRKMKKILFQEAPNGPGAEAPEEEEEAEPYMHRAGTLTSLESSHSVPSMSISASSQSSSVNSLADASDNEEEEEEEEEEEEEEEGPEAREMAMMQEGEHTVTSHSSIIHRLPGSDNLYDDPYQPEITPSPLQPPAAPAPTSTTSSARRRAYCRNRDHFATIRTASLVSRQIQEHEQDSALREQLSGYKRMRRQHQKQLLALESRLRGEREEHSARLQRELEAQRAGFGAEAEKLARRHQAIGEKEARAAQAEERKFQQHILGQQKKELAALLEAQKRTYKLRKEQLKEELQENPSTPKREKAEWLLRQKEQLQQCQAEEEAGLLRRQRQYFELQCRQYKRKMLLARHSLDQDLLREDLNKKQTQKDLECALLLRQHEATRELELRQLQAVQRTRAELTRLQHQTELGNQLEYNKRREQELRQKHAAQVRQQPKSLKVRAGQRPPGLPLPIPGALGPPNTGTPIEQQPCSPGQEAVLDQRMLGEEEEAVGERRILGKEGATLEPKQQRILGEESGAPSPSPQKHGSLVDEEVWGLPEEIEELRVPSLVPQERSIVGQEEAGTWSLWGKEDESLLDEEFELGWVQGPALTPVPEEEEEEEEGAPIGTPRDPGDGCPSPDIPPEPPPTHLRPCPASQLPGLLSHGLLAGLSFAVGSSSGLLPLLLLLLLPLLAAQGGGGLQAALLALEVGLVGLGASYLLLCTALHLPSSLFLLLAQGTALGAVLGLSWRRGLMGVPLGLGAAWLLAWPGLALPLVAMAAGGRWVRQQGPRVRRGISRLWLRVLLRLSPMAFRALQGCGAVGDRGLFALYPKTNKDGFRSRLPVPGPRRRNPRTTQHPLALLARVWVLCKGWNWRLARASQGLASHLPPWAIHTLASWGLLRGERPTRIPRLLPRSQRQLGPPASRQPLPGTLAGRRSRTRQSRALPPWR

SMILES	kinase still bound, per cent of control (RPS6KB1 (human)) [%]	kinase still bound, per cent of control [1] [%]	kinase still bound, per cent of control (MAPK12 (human)) [%]	kinase still bound, per cent of control [2] [%]	kinase still bound, per cent of control (MAP3K3 (human)) [%]	kinase still bound, per cent of control (PIK3CD (human)) [%]	kinase still bound, per cent of control (MKNK1 (human)) [%]	kinase still bound, per cent of control (CSNK1G3 (human)) [%]	kinase still bound, per cent of control (FER (human)) [%]	kinase still bound, per cent of control (CAMK2A (human)) [%]	kinase still bound, per cent of control (NEK1 (human)) [%]	kinase still bound, per cent of control (TRPM6 (human)) [%]	kinase still bound, per cent of control (MAP3K2 (human)) [%]	kinase still bound, per cent of control [3] [%]	kinase still bound, per cent of control (STK35 (human)) [%]	kinase still bound, per cent of control (TAOK2 (human)) [%]	kinase still bound, per cent of control (MAPK14 (human)) [%]	kinase still bound, per cent of control (BRSK1 (human)) [%]	kinase still bound, per cent of control (FYN (human)) [%]	kinase still bound, per cent of control (CDK5 (human)) [%]	further results
C=CC(=O)Nc1cc(-n2c(=O)ccc3cnc4ccc(-c5cn[nH]c5)cc4c32)ccc1C	63	14	98	29	91	27	39	84	100	21	93	71	88	100	98	76	97	82	90	84	kinase still bound, per cent of control (MAP3K10 (human)): 100%; kinase still bound, per cent of control (KIT (human)): 65%; kinase still bound, per cent of control [4]: 97%; kinase still bound, per cent of control (RPS6KA4 KD1 (human)): 100%; kinase still bound, per cent of control (NUAK1 (human)): 11%; kinase still bound, per cent of control [5]: 71%; kinase still bound, per cent of control (MYLK2 (human)): 89%; kinase still bound, per cent of control (PLK4 (human)): 66%; kinase still bound, per cent of control (DCLK2 (human)): 100%; kinase still bound, per cent of control (PAK2 (human)): 87%; kinase still bound, per cent of control (PRKCE (human)): 100%; kinase still bound, per cent of control (STK11 (human)): 100%; kinase still bound, per cent of control (PIM1 (human)): 70%; kinase still bound, per cent of control (MAP2K1 (human)): 69%; kinase still bound, per cent of control (GRK4 (human)): 84%; kinase still bound, per cent of control (SNRK (human)): 100%; kinase still bound, per cent of control (MAP3K6 (human)): 75%; kinase still bound, per cent of control (CDC42BPB (human)): 97%; kinase still bound, per cent of control (MAP4K5 (human)): 93%; kinase still bound, per cent of control (DAPK2 (human)): 57%
CCN1CCN(C(=O)Cc2ccc(Nc3ncc(F)c(Nc4ccc(C(=O)Nc5ccccc5Cl)cc4)n3)cc2)CC1	39	0.6	100	22	49	41	100	100	100	68	17	96	31	23	91	56	97	88	41	79	kinase still bound, per cent of control (MAP3K10 (human)): 7.2%; kinase still bound, per cent of control (KIT (human)): 1%; kinase still bound, per cent of control [4]: 6.9%; kinase still bound, per cent of control (RPS6KA4 KD1 (human)): 100%; kinase still bound, per cent of control (NUAK1 (human)): 18%; kinase still bound, per cent of control [5]: 16%; kinase still bound, per cent of control (MYLK2 (human)): 66%; kinase still bound, per cent of control (PLK4 (human)): 0.25%; kinase still bound, per cent of control (DCLK2 (human)): 88%; kinase still bound, per cent of control (PAK2 (human)): 56%; kinase still bound, per cent of control (PRKCE (human)): 100%; kinase still bound, per cent of control (STK11 (human)): 12%; kinase still bound, per cent of control (PIM1 (human)): 60%; kinase still bound, per cent of control (MAP2K1 (human)): 76%; kinase still bound, per cent of control (GRK4 (human)): 8.8%; kinase still bound, per cent of control (SNRK (human)): 89%; kinase still bound, per cent of control (MAP3K6 (human)): 86%; kinase still bound, per cent of control (CDC42BPB (human)): 100%; kinase still bound, per cent of control (MAP4K5 (human)): 64%; kinase still bound, per cent of control (DAPK2 (human)): 15%
COc1ccc(N(C(=O)Oc2c(C)cccc2C)c2ccnc(Nc3ccc(N4CCN(C)CC4)cc3)n2)c(OC)c1	72	3	75	45	0.75	92	98	87	0.85	84	76	100	2.2	1.6	24	2.4	52	68	0	98	kinase still bound, per cent of control (MAP3K10 (human)): 19%; kinase still bound, per cent of control (KIT (human)): 0.45%; kinase still bound, per cent of control [4]: 36%; kinase still bound, per cent of control (RPS6KA4 KD1 (human)): 100%; kinase still bound, per cent of control (NUAK1 (human)): 30%; kinase still bound, per cent of control [5]: 0.1%; kinase still bound, per cent of control (MYLK2 (human)): 0.95%; kinase still bound, per cent of control (PLK4 (human)): 37%; kinase still bound, per cent of control (DCLK2 (human)): 44%; kinase still bound, per cent of control (PAK2 (human)): 58%; kinase still bound, per cent of control (PRKCE (human)): 27%; kinase still bound, per cent of control (STK11 (human)): 60%; kinase still bound, per cent of control (PIM1 (human)): 100%; kinase still bound, per cent of control (MAP2K1 (human)): 38%; kinase still bound, per cent of control (GRK4 (human)): 7.9%; kinase still bound, per cent of control (SNRK (human)): 100%; kinase still bound, per cent of control (MAP3K6 (human)): 93%; kinase still bound, per cent of control (CDC42BPB (human)): 2.9%; kinase still bound, per cent of control (MAP4K5 (human)): 0.7%; kinase still bound, per cent of control (DAPK2 (human)): 100%
